Our source for the diabetes mellitus outcome values is patent EP4424327A1, “METHOD OR AGENT WITH HDAC REGULATOR, FOR TREATMENT OF DIABETES AND COMPLICATIONS” (Biozipcode, Inc., priority 2021, dated 2023).

Molecules are shown by their SMILES. Where a SMILES comes first, the peptide text is derived from it. [ ]: non-standard residue; d: D form. Aoe = N[C@@H](CCCCCC(=O)[C@@H]1CO1)C(=O)O

A short description of the assay: Treatment of diabetes mellitus with other HDAC regulators instead of givinostat (Example 7). It counts as in vivo. To be noted: used instead of givinostat; model and dose not stated.
On to `O=C(O)CCCc1ccccc1` [4-phenylbutyric acid], for which the diabetes mellitus outcome is “similarly cured”.

As to `O=C(CCCCCCSc1ccc2ccccc2c1)NO` [(N-hydroxy-7-2-naphthylthio)heptanomide], the diabetes mellitus outcome is reported as “similarly cured”.

In the case of `CCCC(=O)OCOC(=O)C(C)(C)C` [(pivaloyloxy)methyl butyrate], the diabetes mellitus outcome is “similarly cured”.

Consider `CN(C)CCCNC(=O)/C(=C/CCCCC(=O)NO)COc1cccc2ccccc12` [CG200745], for which the diabetes mellitus outcome is on record as “similarly cured”.

For the compound `O=C(CCC1=CCCN(CCCc2ccccc2)C1=O)NO` [KBH-A42], the diabetes mellitus outcome is listed as “similarly cured”.

With `CN(C)c1ccc(C(=O)NCc2ccc(/C=C/C(=O)NO)cc2)cc1` [SK-7041], the diabetes mellitus outcome was “similarly cured”.

On to `O=C(CCCCCCC(=O)Nc1ccc([C@H]2O[C@@H](CSc3nc(-c4ccccc4)c(-c4ccccc4)o3)C[C@@H](c3ccc(CO)cc3)O2)cc1)NO` [Tubacin], for which the diabetes mellitus outcome is listed as “similarly cured”.

Regarding `CN(C)Cc1c(C(=O)NCCOc2ccc(C(=O)NO)cc2)oc2ccccc12` [abexinostat], the diabetes mellitus outcome is on record as “similarly cured”.

For the compound `O=C(CCCCCCCC(=O)NO)NO` [azelaoyl-bis-hydroxamic acid], the diabetes mellitus outcome is “similarly cured”.

Take `O=C(/C=C/c1cccc(S(=O)(=O)Nc2ccccc2)c1)NO` [belinostat]: the diabetes mellitus outcome was “similarly cured”.

In the case of `O=C(/C=C/c1ccc(CN(CCO)CCc2c[nH]c3ccccc23)cc1)NO` [dacinostat], the diabetes mellitus outcome is “similarly cured”.

For the compound `C=CCSSSCC=C` [diallyl trisulfide], the diabetes mellitus outcome is “similarly cured”.

Regarding `Nc1ccccc1NC(=O)c1ccc(CNC(=O)OCc2cccnc2)cc1` [entinostat], the diabetes mellitus outcome is on record as “similarly cured”.

For the compound `O=C(C=Cc1cccc(C(=O)NO)c1)NO` [m-carboxycinnamic acid bis-hydroxamide], the diabetes mellitus outcome was “similarly cured”.

For the compound `Nc1ccccc1NC(=O)c1ccc(CNc2nccc(-c3cccnc3)n2)cc1` [mocetinostat], the diabetes mellitus outcome is “similarly cured”.

For the compound `O=C(NO)c1cnc(N2C[C@@H]3[C@H](C2)[C@H]3NCc2ccc3cc(F)ccc3n2)nc1` [nanatinostat], the diabetes mellitus outcome is recorded as “similarly cured”.

In the case of `CCCCc1nc2cc(/C=C/C(=O)NO)ccc2n1CCN(CC)CC` [pracinostat], the diabetes mellitus outcome is given as “similarly cured”.

As for `Cn1cc(CNCC2CCN(c3ncc(C(=O)NO)cn3)CC2)c2ccccc21` [quisinostat], the diabetes mellitus outcome is “similarly cured”.

`CN(C)Cc1ccc(S(=O)(=O)n2ccc(/C=C/C(=O)NO)c2)cc1` [resminostat]: the diabetes mellitus outcome is on record as “similarly cured”.

In the case of `O=C(CCCCCCNC(=O)c1cnc(N(c2ccccc2)c2ccccc2)nc1)NO` [rocilinostat], the diabetes mellitus outcome is recorded as “similarly cured”.

Consider `O=C(CCCCCN1C(=O)c2cccc3cccc(c23)C1=O)NO` [scriptaid], for which the diabetes mellitus outcome is recorded as “similarly cured”.

As to `CCCC(=O)[O-].[Na+]` [sodium butyrate], the diabetes mellitus outcome was “similarly cured”.

In the case of `CC(=O)Nc1ccc(C(=O)Nc2ccccc2N)cc1` [tacedinaline], the diabetes mellitus outcome is “similarly cured”.

Take `O=C1N[C@@H](Cc2ccccc2)C(=O)N2CCC[C@@H]2C(=O)N[C@@H](CCCCCC(=O)[C@@H]2CO2)C(=O)N[C@H]1Cc1ccccc1` [trapoxin] (cyclo(FF[dP][Aoe])): the diabetes mellitus outcome was “similarly cured”.

For the compound `CC(/C=C/C(=O)NO)=C\[C@@H](C)C(=O)c1ccc(N(C)C)cc1` [trichostatin A], the diabetes mellitus outcome is “similarly cured”.

As to `O=C(CCCCCCC(=O)Nc1ccccc1)NO` [vorinostat, suberoylanilide hydroxamic acid], the diabetes mellitus outcome is given as “similarly cured”.
